Experiments:
[1] = Specific growth rate after sea transfer (Example 4); assay type: in vivo, salmon (Salmo salar); details: treated groups, after about 12 weeks; control group 1.79%
Method: About 2,500 salmon (Salmo salar) of average weight 42 grams were treated orally with a daily dosage of 4 mg hexaflumuron per kilo fish for 5 days. The treatment was carried out in freshwater one week before the fish were transferred to sea water. In the sea water, the fish was distributed into 3 different minicages with 800-850 fish in each. At the same time 1,000 untreated fish (from a different fish farm) weighing on average 50 grams were transferred to sea in a neighbouring cage. After being transferred to sea water, the fish were exposed to natural sea lice infection. The number of lice on 10 fish from each cage were counted every third week to check if there was any difference in the number of lice in the cages. When ending the trial, about 12 weeks after the fish had been transferred to sea, the fish in each cage were weighed to check possible differences in growth (SGR, specific growth rate). The water temperature varied between 10-16°C during the trial. […] From 9 weeks on, there was no difference between the groups. The dosage rate that was used in this trial, i.e. 4 mg of hexaflumuron per kg fish per day, is very low. By increasing the dosage the protection time would probably be extended. […] The SRG was measured after about 12 weeks and it was estimated at 1.79% in the control group, and 1.95 - 2.00% in the treated groups.

[2] = Chemical analysis of muscle/skin after injection of hexaflumuron formulations (Example 8); assay type: in vivo, salmon smolt; details: 50 mg/kg; for concentration at 5232 h: fish, muscle/skin, T8 (218 days after injection)
Method: Tissue samples (muscle/skin) for chemical analysis were collected from five fish injected with the various hexaflumuron formulations at each sample point in time throughout the trial. […] At sea water transfer, the muscle/skin concentrations in the two other hexaflumuron groups (Apoject 1-Fural, animal oil) varied between 1 and 2.5 µg hexaflumuron/g tissue.

sea lice = assay: Oral treatment (coated feed / Akvaletter) of naturally sea lice infected salmon in minicages (Example 2); assay type: in vivo, Atlantic salmon (Salmo salar)
Method: The treatment dosage was 9 mg hexaflumuron per kg fish per day for 10 days. This is indicated by "Groups/Timepoints" in the figure; • Figure 2 relates to the trial in Example 2 that was carried out on Atlantic salmon (Salmo salar). […] The treatment dosage varied between 3 - 9 mg hexaflumuron and 9- 12 mg fluazuron per kg fish per day for 7 days. This is indicated by "Groups/Timepoints" in the diagram. […] The treated groups are compared to an untreated control group. The treatment dosage was 4 mg hexaflumuron per kg fish per day for 5 days. This is indicated by "Groups/Timepoints" in the figure. Cage 2 = controls, Cage 4-6 = treated groups, 16.6.97 = time point for sea transfer and 5.8.97= controls treated by bathing with deltamethrin; • Figure 4 relates to the trial described in Example 5, which was carried out on sea trout (Salmo trutta). […] The treated groups are compared with an untreated control group. The dosage for oral treatment was 4 mg hexaflumuron per kilo fish per day for 5 days, and 5 ppm hexaflumuron as a 30 minute bath treatment. This is indicated by "Groups/Timepoints" in the figure. Cage 1.4 = Controls, cage 1.3 = Oral treatment, cage 1.2 = Bath treatment. […] The treated groups are compared with an untreated control group, and one group that has been treated orally with teflubenzuron (10 mg/kg of teflubenzuron per kg fish per day for 7 days). The dosage for oral treatment was 5.6 mg hexaflumuron per kg fish per day for 7 days, and 5 ppm hexaflumuron as a 30 minute bath treatment. […] End of treatment: 22.10.97, Sea transfer: 23.10.97. T1 = 3 weeks post end of treatment, T2 = 5 weeks post end of treatment, T3 = 9 weeks post end of treatment, T4 = 12 weeks post end of treatment; • Figure 6 relates to the trial in Example 6 at time points 4-6, with the same trial parameters as for Figure 5. T5 = 15 weeks post end of treatment, T6 = 17 weeks post end of treatment. Cage 3 and 4 were treated by bath with deltamethrin after sea lice counting at T4 (12.01.98); • Figure 7 relates to the trial described in Example 7 where salmon were injected on 17.12.97 with two formulations (groups L and R, respectively) of hexaflumuron and a vaccine formulation without hexaflumuron (control). […] The vaccinated fish was transferred to sea water on 09.01.98; • Figure 8 summarises the trial of Example 8 where salmon smolts were injected with 9 different active substances on 08.07.98. Only results for Moxidectin (Mox.), Lufenuron (Luf.) and hexaflumuron in Apoject 1-Fural (Hex.Apo) and in animal oil (Hex.oil) are shown, and • Figure 9 summarises the trial described in Example 10 where salmon were injected on 03.12.97 with 3 different formulations of hexaflumuron (Hexa 1, Hexa 2 and Hexa 3). The fish were transferred to sea water at T0. […]

Anilocra physodes = assay: Oral hexaflumuron against infestation with a parasitic isopod (Example 9); assay type: in vivo, Sea bass (Dicentrarchus labrax)
Method: In this trial, hexaflumuron was administered orally in order to test the effect against infestations with the parasitic isopod Anilocra physodes in Sea bass (Dicentrarchus labrax).
150,000 Sea bass (Dicentrarchus labrax) having an average weight of 2 grams were transferred from a hatchery facility and distributed into 5 cages each containing 30,000 fish. The trial was carried out in a food fish facility in the Mediterranean where the sea water temperature varied in the range of 15.0-25.0°C throughout the trial period.
Fish in four cages were fed medicated feed at an amount corresponding to 0.5% of the total biomass per day for 6 days, corresponding to 10 mg hexaflumuron/kg fish per day. One week after the medication and subsequently every three weeks the number of parasites on the fish was monitored.

In the case of `O=C(NC(=O)c1c(F)cccc1F)Nc1cc(Cl)c(OC(F)(F)C(F)F)c(Cl)c1` [hexaflumuron], the “SGR (specific growth rate)” value [1] is reported as 1.95 - 2.00%, the “hexaflumuron concentrations in muscle/skin” value ([2]; T3, injected in an aqueous suspension (PBS)) is reported as “below 0.02 µg per g” and the concentration at 5232 h ([2]; Apoject 1-Fural group) is reported as 260 ng/g. The concentration at 5232 h ([2]; animal oil group) was 270 ng/g, the “reduced the number of lice as compared to the control treatment” value (sea lice; all groups treated with hexaflumuron, 3.0-9.0 mg per day, 7 days, 8.0 - 9.8°C) was “more than 70%” and the “reduction of sensitive chalimus and pre-adult stages” value (sea lice; groups given the highest dosage (9.0 mg per day, 7 days)) was over 99%. For the same compound, the “reduction of sensitive chalimus and pre-adult stages” value (sea lice; hexaflumuron groups, 3.0-9.0 mg per day, 7 days) was over 90%, the “parasites found in the treated groups” value (Anilocra physodes; one week after the medication period (10 mg/kg fish per day, 6 days), control 0.1 louse) was “no parasites were found” and the “period of effect against Anilocra physodes after medication” value (Anilocra physodes; oral 10 mg/kg fish per day for 6 days) was “about 3 weeks”. The “average parasites in the treated groups” value (Anilocra physodes; three weeks after the medication period, control 0.4 louse) was 0.15 louse.

Reference: patent EP1306084A1, “Compositions for the control of parasitic infestations in fish” (Alpharma AS, priority 1998, dated 1999)
